The values below come from PMC4057667, “Study on Biopharmaceutics Classification and Oral Bioavailability of a Novel Multikinase Inhibitor NCE for Cancer Therapy” (International Journal of Molecular Sciences, 2014).

The term solubility denotes the dissolved amount per volume that the medium holds. As usually defined, the pKa is the negative logarithm of the acid dissociation constant. The term logP denotes a log measure of how a compound divides between an organic and an aqueous phase. A lower logP goes with a more hydrophilic compound.

SMILES strings stand for the structures.

Data set [1] concerns VEGF-stimulated human umbilical vein endothelial cells (HUVECs). Details: method as in PMID 21691074. Particulars: in vitro; cited from earlier work.
The subject of data set [2] is fibroblast growth factor receptor 2 (FGFR2). Details: method as in PMID 21691074. Particulars: at a concentration of 10 μM; cited from earlier work.
Data set [3] in a line: Equilibrium solubility in phosphate buffers. The class given is physicochemical. Conditions: aqueous buffer, thermodynamic from solid, n = 3, mean. As to the method:
Different phosphate buffers with a pH range of 1.0–7.4 were prepared as follows. Momobasic potassium phosphate (KH2PO4, 0.2 M) was prepared by dissolving 27.22 g of KH2PO4 in water and diluting with water to 1000 mL. Sodium hydroxide (NaOH, 0.2 M) was prepared by dissolving […] of NaOH in water and diluting with water to 1000 mL. Then, we placed 50 mL of the momobasic potassium phosphate solution in a 200 mL volumetric flask, added the specified volume of the sodium hydroxide solution and added water to volume.
The equilibrium solubilities of NCE were determined in 0.1 mol/mL phosphate buffers with a pH range of 1.0–7.4. An excess amount of NCE was put into the buffer, placed in a 37 °C water bath and shaken for 3 days at a rate of 100 rpm. Samples were centrifuged at a rate of 1.3 × 10^4 rpm for 10 min and then measured by HPLC (Waters e2695 Separations Module, Milford, MA, USA). Each experiment was performed in triplicates.

Data set [4] is described as follows: Stability in perfusion buffers. The format is physicochemical. Conditions: for Detected concentration / Rate of change: perfusion buffer. As to the method: Storage conditions were investigated to guarantee the samples were stable before HPLC analysis. The stability of NCE was evaluated in the perfusion solution (pH 6.5). Four aliquots of the NCE solutions were stored at room temperature for 0, 2, 4 or 6 h, respectively. Another three were stored at 4 °C for 0, 24 or 48 h, respectively. All the samples were centrifuged at a rate of 1.3 × 10^4 rpm for 10 min and then measured by HPLC. The sample concentrations were compared.

Data set [5] in a line: Biopharmaceutics Classification System (BCS) classification. Conditions: IDR below borderline value of 1 mg·min^−1·cm^−2. The text has this: Targeted small-molecular inhibitors are promising antitumor candidates compared to the traditional chemotherapy drugs due to their high efficiency and low toxicity. Their common formulations are oral preparations with good compliance. The essential parameters controlling oral drug absorption are the permeability of the drug through the gastrointestinal (GI) membrane and the drug solubility/dissolution in GI milieu. Biopharmaceutics Classification System (BCS) is a modern tool to characterize drug permeability and solubility/dissolution [4, 5]. […] By using BCS system, some drug-drug interactions could be prevented and the in vivo bioavailability testing of the immediate release dosage forms of class I and III drugs could be bypassed. Up till now, there is rare systemic report about specific classification method according to BCS, especially for a novel drug candidate.
According to the Food and Drug Administration (FDA) guidance for biowaiver request of immediate-release solid oral dosage forms, a drug substance is considered as high soluble when the highest dose strength is soluble in ≤250 mL of aqueous media over the pH range of 1.0–7.5 [7]. However, the choice of different dose has a great impact on the dose/solubility ratio and then affects the classification of drugs. […]

The nature of the next data set: pKa determination. Conditions: read-out: pKa of conjugate acid. The class given is physicochemical.
Data set [6] in a line: 1-octanol/water partition coefficient, shake-flask method. The format is physicochemical. Conditions: 37 °C. As to the method: The partition coefficient (logP value) is related closely to drug’s absorption in vivo. Furthermore, it can help to get a better understanding of drug’s physicochemical properties. The 1-octanol/water partition coefficient of NCE was measured by a shake-flask method. Both the 1-octanol and aqueous buffer solution were saturated before performing the experiments. Solutions of about 3.3 mM NCE were prepared in aqueous 0.1 M HCl (pH = 1.0) solution and PBS buffer (pH = 6.8) solutions. Then, 1 mL of 1-octanol was added to 9 mL of the aqueous NCE solution in glass flasks. The mixtures were then stirred in a mechanical shaker for 6 h (37 °C). Samples were left in water baths and kept at the appropriate temperature (37 °C) for at least 72 h. After that, the concentrations in the aqueous phase and 1-octanol phase were determined by HPLC, respectively. The partition coefficients were calculated by the following equation. All the partitioning experiments were performed in at least triplicate.
(1) P1-octanol/water=lg (C1-octanol/Cwater)
where P1-octanol/water is the partition coefficient value; C1-octanol is the drug’s concentration in 1-octanol phase; Cwater is the drug’s concentration in aqueous solution.

The nature of data set [7]: Intrinsic dissolution rate (IDR) measurement. Particulars: phosphate buffer pH 6.8 with 1% SDS, 37 °C, 75 rpm, initial 4 h. The format is physicochemical. As to the method:
A modified IDR measurement method was carried out. In brief, 50 mg NCE was compressed under an average compression force of 3.0 MPa for 1 min to make a non-disintegrating compact using a 5 mm die and punch. The surface area of the compact was 0.1963 cm^2. Compacts were placed in a molten beeswax-mold in a way that only one side could come in contact with the dissolution medium. Dissolution study was conducted employing USP II dissolution apparatus using 900 mL phosphate buffer (0.1 mol/mL, pH = 6.8) with 1% SDS (w/v) at 37 ± 1 °C. The paddle rotating speed was 75 rpm. Samples were collected every 30 min for a period of 8 h and analyzed by HPLC. Samples were tested in triplicates.
To evaluate the IDR of NCE, the cumulative amount dissolved per surface unit of the compact was plotted against time. The slope of the linear region (R^2 ≥ 0.95) was taken as the intrinsic dissolution rate. IDR was calculated by the following equation as described previously.
(2) IDR=(dw/dt)(1/S)=DCs/h
where IDR is the intrinsic dissolution rate (mg/min/cm^2); dw is the change in drug dissolved (mg); dt is the change in time (min); S is the surface area of the compact (cm^2); D is diffusion coefficient (cm^2/s); Cs is the solubility (mg/cm^3) and h is the stagnant layer thickness (cm).

Take `CNC(=O)c1cc(Oc2ccc(NC(=O)c3cccc(C(F)(F)F)c3)cc2)ccn1.Cc1ccc(S(=O)(=O)O)cc1.O` [NCE, 2-methylcarbamoyl-4-{4-[3-(trifluoromethyl)benzamido]phenoxy} pyridinium 4-methylbenzenesulfonate monohydrate]: the “inhibition of VEGF-stimulated HUVECs proliferation” value in data set [1] is reported as “more selective inhibition”. In addition, in data set [2], the inhibition rate is on record as 65%. In addition, the solubility at 3 days in data set [3] (phosphate buffer pH 1.0, 37 °C) stood at 81.7 µg/mL; in data set [3] (phosphate buffer pH 5.0, 37 °C), 8.5 µg/mL; in data set [3] (phosphate buffer pH 6.8, 37 °C), 9.3 µg/mL; in data set [3] (phosphate buffer pH 7.4, 37 °C), 10 µg/mL. Also, the Detected concentration was found to be 19.16 µg/mL in data set [4] (4 °C, 24 h); 18.99 µg/mL in data set [4] (4 °C, 48 h); 19.83 µg/mL in data set [4] (20 °C, 0 h); 19.66 µg/mL in data set [4] (20 °C, 2 h); 19.49 µg/mL in data set [4] (20 °C, 4 h); 19.32 µg/mL in data set [4] (20 °C, 6 h). The Rate of change is given as 3.38% in data set [4] (4 °C, 24 h); 4.21% in data set [4] (4 °C, 48 h); 0.86% in data set [4] (20 °C, 2 h); 1.70% in data set [4] (20 °C, 4 h); 2.55% in data set [4] (20 °C, 6 h). For the same molecule, in data set [4] (perfusion buffers, up to 6 h at room temperature or 48 h at 4 °C), the “concentration variation rates, all samples in stability study” value is “less than 5%”. Also, the solubility class result in data set [5] is given as “low solubility”. In the data set “pKa determination”, the pKa amounted to 2.86. Moreover, the logP at 6 h was 3.1 ± 0.04 in data set [6] (1-octanol / 0.1 M HCl solution (pH = 1.0)) and 4.2 ± 0.07 in data set [6] (1-octanol/PBS pH 6.8, pH 6.8, 1-octanol / PBS 6.8 solution). In addition, in data set [7], the “Intrinsic dissolution rate (IDR)” value was 1 × 10^−4 mg·min^−1·cm^−2.
